Measurements reported in PubChem BioAssay (NCI).
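These data come from cells grown in 96-well plates and exposed to compound for 48 hours at five concentrations. TGI: total growth inhibition.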

Tests used:
Assay in all cases: inhibition of tumour cell growth, NCI panel, 48 h
786-0 renal = system: 786-0 renal
A498 renal = system: A498 renal
A549 NSCLC = system: A549 NSCLC
ACHN renal = system: ACHN renal
BT-549 breast = system: BT-549 breast
CAKI-1 renal = system: CAKI-1 renal
CCRF-CEM leukemia = system: CCRF-CEM leukemia
COLO 205 colon = system: COLO 205 colon
DU-145 prostate = system: DU-145 prostate
EKVX NSCLC = system: EKVX NSCLC
HCT-116 colon = system: HCT-116 colon
HCT-15 colon = system: HCT-15 colon
HL-60(TB) leukemia = system: HL-60(TB) leukemia
HOP-62 NSCLC = system: HOP-62 NSCLC
HOP-92 NSCLC = system: HOP-92 NSCLC
HS 578T breast = system: HS 578T breast
HT29 colon = system: HT29 colon
IGROV1 ovarian = system: IGROV1 ovarian
K-562 leukemia = system: K-562 leukemia
KM12 colon = system: KM12 colon
LOX IMVI melanoma = system: LOX IMVI melanoma
M14 melanoma = system: M14 melanoma
MCF7 breast = system: MCF7 breast
MDA-MB-231 breast = system: MDA-MB-231 breast
MDA-MB-435 = system: MDA-MB-435
MDA-N = system: MDA-N
MOLT-4 leukemia = system: MOLT-4 leukemia
NCI-H226 lung = system: NCI-H226 lung
NCI-H23 lung = system: NCI-H23 lung
NCI-H460 lung = system: NCI-H460 lung
NCI/ADR-RES ovarian = system: NCI/ADR-RES ovarian
OVCAR-3 ovarian = system: OVCAR-3 ovarian
OVCAR-5 ovarian = system: OVCAR-5 ovarian
OVCAR-8 ovarian = system: OVCAR-8 ovarian
PC-3 prostate = system: PC-3 prostate
RPMI-8226 leukemia = system: RPMI-8226 leukemia
SF-268 CNS = system: SF-268 CNS
SF-295 CNS = system: SF-295 CNS
SF-539 CNS = system: SF-539 CNS
SK-MEL-2 melanoma = system: SK-MEL-2 melanoma
SK-MEL-28 melanoma = system: SK-MEL-28 melanoma
SK-MEL-5 melanoma = system: SK-MEL-5 melanoma
SK-OV-3 ovarian = system: SK-OV-3 ovarian
SN12C renal = system: SN12C renal
SNB-19 CNS = system: SNB-19 CNS
SNB-75 CNS = system: SNB-75 CNS
SR leukemia = system: SR leukemia
SW-620 colon = system: SW-620 colon
T-47D breast = system: T-47D breast
TK-10 renal = system: TK-10 renal
U251 CNS = system: U251 CNS
UACC-257 melanoma = system: UACC-257 melanoma
UACC-62 melanoma = system: UACC-62 melanoma
UO-31 renal = system: UO-31 renal
HCC-2998 colon = system: HCC-2998 colon
OVCAR-4 ovarian = system: OVCAR-4 ovarian
MALME-3M melanoma = system: MALME-3M melanoma
NCI-H522 lung = system: NCI-H522 lung
RXF 393 renal = system: RXF 393 renal

SMILES: NC(=S)Nc1[nH]c(=S)nc2[nH]ccc12
- TGI (786-0 renal): > 100000 nM
- TGI (A498 renal): > 100 µM
- TGI (A549 NSCLC): > 100 µM
- TGI (ACHN renal): > 100 µM
- TGI (BT-549 breast): > 100 µM
- TGI (CAKI-1 renal): > 100 µM
- TGI (CCRF-CEM leukemia): > 100 µM
- TGI (COLO 205 colon): > 100 µM
- TGI (DU-145 prostate): > 100 µM
- TGI (EKVX NSCLC): > 100 µM
- TGI (HCT-116 colon): > 100 µM
- TGI (HCT-15 colon): > 100 µM
- TGI (HL-60(TB) leukemia): 53.2 µM
- TGI (HOP-62 NSCLC): > 100 µM
- TGI (HOP-92 NSCLC): > 100 µM
- TGI (HS 578T breast): > 100 µM
- TGI (HT29 colon): > 100 µM
- TGI (IGROV1 ovarian): > 100 µM
- TGI (K-562 leukemia): > 100 µM
- TGI (KM12 colon): > 100 µM
- TGI (LOX IMVI melanoma): > 100 µM
- TGI (M14 melanoma): > 100 µM
- TGI (MCF7 breast): > 100 µM
- TGI (MDA-MB-231 breast): > 100 µM
- TGI (MDA-MB-435): > 100 µM
- TGI (MDA-N): > 100 µM
- TGI (MOLT-4 leukemia): > 100 µM
- TGI (NCI-H226 lung): > 100 µM
- TGI (NCI-H23 lung): > 100 µM
- TGI (NCI-H460 lung): > 100 µM
- TGI (NCI/ADR-RES ovarian): > 100 µM
- TGI (OVCAR-3 ovarian): 94.3 µM
- TGI (OVCAR-5 ovarian): > 100 µM
- TGI (OVCAR-8 ovarian): > 100 µM
- TGI (PC-3 prostate): > 100 µM
- TGI (RPMI-8226 leukemia): > 100 µM
- TGI (SF-268 CNS): > 100 µM
- TGI (SF-295 CNS): > 100 µM
- TGI (SF-539 CNS): > 100 µM
- TGI (SK-MEL-2 melanoma): > 100 µM
- TGI (SK-MEL-28 melanoma): > 100 µM
- TGI (SK-MEL-5 melanoma): > 100 µM
- TGI (SK-OV-3 ovarian): > 100 µM
- TGI (SN12C renal): > 100 µM
- TGI (SNB-19 CNS): > 100 µM
- TGI (SNB-75 CNS): 62.9 µM
- TGI (SR leukemia): > 100 µM
- TGI (SW-620 colon): > 100000 nM
- TGI (T-47D breast): > 100 µM
- TGI (TK-10 renal): > 100 µM
- TGI (U251 CNS): > 100 µM
- TGI (UACC-257 melanoma): > 100 µM
- TGI (UACC-62 melanoma): > 100 µM
- TGI (UO-31 renal): > 100 µM

SMILES: CC(C)C[C@@H](NC(=O)[C@@H](Cc1cccc2ccccc12)NC(=O)N1CCOCC1)B(O)O
- TGI (A498 renal): 93.8 µM
- TGI (A549 NSCLC): > 100 µM
- TGI (ACHN renal): > 100 µM
- TGI (BT-549 breast): > 100 µM
- TGI (CAKI-1 renal): > 100 µM
- TGI (COLO 205 colon): > 100 µM
- TGI (DU-145 prostate): > 100 µM
- TGI (HCC-2998 colon): > 100 µM
- TGI (HCT-116 colon): > 100 µM
- TGI (HCT-15 colon): > 100 µM
- TGI (HL-60(TB) leukemia): > 100 µM
- TGI (HOP-62 NSCLC): > 100 µM
- TGI (HOP-92 NSCLC): > 100 µM
- TGI (HS 578T breast): > 100 µM
- TGI (HT29 colon): > 100 µM
- TGI (IGROV1 ovarian): > 100 µM
- TGI (K-562 leukemia): > 100 µM
- TGI (KM12 colon): > 100 µM
- TGI (LOX IMVI melanoma): > 100 µM
- TGI (M14 melanoma): 78.7 µM
- TGI (MDA-MB-231 breast): > 100 µM
- TGI (MDA-MB-435): 42.9 µM
- TGI (MDA-N): 41.8 µM
- TGI (MOLT-4 leukemia): 96.5 µM
- TGI (NCI-H226 lung): 36.8 µM
- TGI (NCI-H23 lung): > 100 µM
- TGI (NCI-H460 lung): > 100 µM
- TGI (NCI/ADR-RES ovarian): > 100 µM
- TGI (OVCAR-3 ovarian): 85.8 µM
- TGI (OVCAR-4 ovarian): > 100 µM
- TGI (OVCAR-5 ovarian): > 100 µM
- TGI (OVCAR-8 ovarian): > 100 µM
- TGI (PC-3 prostate): > 100 µM
- TGI (RPMI-8226 leukemia): > 100 µM
- TGI (SF-268 CNS): > 100 µM
- TGI (SF-539 CNS): > 100 µM
- TGI (SK-MEL-2 melanoma): > 100 µM
- TGI (SK-MEL-28 melanoma): 64.1 µM
- TGI (SN12C renal): > 100 µM
- TGI (SNB-19 CNS): > 100 µM
- TGI (SR leukemia): > 100 µM
- TGI (T-47D breast): > 100 µM
- TGI (TK-10 renal): 90.7 µM
- TGI (U251 CNS): > 100 µM
- TGI (UACC-257 melanoma): > 100 µM
- TGI (UACC-62 melanoma): > 100 µM
- TGI (UO-31 renal): > 100 µM

SMILES: CCOC(=O)C(=Cc1ccccc1Cl)C(=O)OCC
- TGI (786-0 renal): 2820 nM
- TGI (A498 renal): 5 µM
- TGI (A549 NSCLC): 5.21 µM
- TGI (ACHN renal): 7.62 µM
- TGI (BT-549 breast): 4.59 µM
- TGI (CAKI-1 renal): 4.27 µM
- TGI (CCRF-CEM leukemia): 4.69 µM
- TGI (COLO 205 colon): 3.02 µM
- TGI (DU-145 prostate): 3.96 µM
- TGI (EKVX NSCLC): 7.39 µM
- TGI (HCC-2998 colon): > 10 µM
- TGI (HCT-116 colon): 1.88 µM
- TGI (HCT-15 colon): 4.83 µM
- TGI (HL-60(TB) leukemia): 3.83 µM
- TGI (HOP-62 NSCLC): 4.05 µM
- TGI (HOP-92 NSCLC): 4.96 µM
- TGI (HS 578T breast): > 10 µM
- TGI (HT29 colon): 3.3 µM
- TGI (IGROV1 ovarian): 7.31 µM
- TGI (K-562 leukemia): 5.28 µM
- TGI (KM12 colon): 2.67 µM
- TGI (LOX IMVI melanoma): 4.5 µM
- TGI (M14 melanoma): 2.95 µM
- TGI (MALME-3M melanoma): 3.58 µM
- TGI (MDA-MB-231 breast): 3.39 µM
- TGI (MDA-MB-435): 3.29 µM
- TGI (MDA-N): 4.93 µM
- TGI (MOLT-4 leukemia): 6.27 µM
- TGI (NCI-H226 lung): 5.56 µM
- TGI (NCI-H23 lung): 3.83 µM
- TGI (NCI-H460 lung): 7.22 µM
- TGI (NCI-H522 lung): 4.02 µM
- TGI (NCI/ADR-RES ovarian): 5.97 µM
- TGI (OVCAR-3 ovarian): 2.76 µM
- TGI (OVCAR-4 ovarian): 5.05 µM
- TGI (OVCAR-5 ovarian): 4.13 µM
- TGI (OVCAR-8 ovarian): 2.12 µM
- TGI (PC-3 prostate): 4.3 µM
- TGI (RPMI-8226 leukemia): 4.87 µM
- TGI (RXF 393 renal): 3.78 µM
- TGI (SF-268 CNS): 6.05 µM
- TGI (SF-295 CNS): 6.31 µM
- TGI (SF-539 CNS): 4.13 µM
- TGI (SK-MEL-2 melanoma): 4.59 µM
- TGI (SK-MEL-28 melanoma): 3.53 µM
- TGI (SK-MEL-5 melanoma): 3.6 µM
- TGI (SK-OV-3 ovarian): > 10 µM
- TGI (SN12C renal): 3.91 µM
- TGI (SNB-19 CNS): 3.53 µM
- TGI (SNB-75 CNS): 0.617 µM
- TGI (SR leukemia): > 10 µM
- TGI (SW-620 colon): 2600 nM
- TGI (T-47D breast): 8.86 µM
- TGI (U251 CNS): 3.07 µM
- TGI (UACC-257 melanoma): 3.21 µM
- TGI (UACC-62 melanoma): 3.67 µM
- TGI (UO-31 renal): 3.2 µM
